In this assay the target is T1, CXCR4 (Homo sapiens, UniProt P61073).
T1 construct: full-length receptor overexpressed in U87.CD4.CXCR4 glioma cells
The assay is described as follows: […]SDF-1 (CXCL12) displacement on U87.CD4.CXCR4 cells. It is filed as cell-based.

T1 sequence (P61073 whole entry): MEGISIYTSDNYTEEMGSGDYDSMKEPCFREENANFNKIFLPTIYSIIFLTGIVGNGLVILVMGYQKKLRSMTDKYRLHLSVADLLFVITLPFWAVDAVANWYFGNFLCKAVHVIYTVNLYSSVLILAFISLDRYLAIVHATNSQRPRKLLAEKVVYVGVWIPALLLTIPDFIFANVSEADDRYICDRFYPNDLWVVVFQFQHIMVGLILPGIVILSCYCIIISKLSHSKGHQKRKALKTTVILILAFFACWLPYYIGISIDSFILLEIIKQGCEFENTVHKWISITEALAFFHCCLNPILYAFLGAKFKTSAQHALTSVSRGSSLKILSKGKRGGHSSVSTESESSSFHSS

`c1ccc(CNCc2ccc(CN3CCCNCCNCCCNCC3)cc2)nc1` [AMD3465]: the IC50 was found to be 89.8 ± 3.5 nM.

`Fc1ccc(CNCCNCc2ccc(CN3CCCNCCNCCCNCC3)cc2)cc1` [compound 5, N^1-(4-((1,4,8,11-Tetraazacyclotetradecan-1-yl)methyl)benzyl)-N^2-(4-fluorobenzyl)ethane-1,2-diamine]: the IC50 stood at 111 ± 4 nM.

The record behind these values is paper PMC6522096, “Development and Evaluation of an ^18F-Radiolabeled Monocyclam Derivative for Imaging CXCR4 Expression” (Molecular Pharmaceutics, 2019).
